These results are taken from the RepoRT retention time repository (doi:10.1016/j.jchromb.2020.122105).

The structures appear in SMILES notation.

Conditions in all cases: stereoisomer not certain
Series [1] can be described thus: RP, Waters ACQUITY UPLC BEH C18, 100 × 2.1 mm, 1.7 µm, 0.2 mL/min, estimated dead time 1.1 min; A: water + 0.025% formic acid + 20 mM ammonium acetate + 0.055% ammonium hydroxide, pH 7; B: methanol; gradient (min/%B) 0/5 5/5 25/100 30/100 30.1/5 35/5.
A short description of series [2]: RP, Waters CORTECS T3, 100 × 2.1 mm, 2.7 µm, 0.3 mL/min, estimated dead time 0.73 min; A: water + 0.1% formic acid, pH 3; B: methanol + 0.1% formic acid, pH 3; gradient (min/%B) 0/5 5/5 25/95 25.1/100 35/100 35.1/5 45/5.
Series [3] is described as follows: RP, Waters CORTECS T3, 100 × 2.1 mm, 2.7 µm, 0.25 mL/min, estimated dead time 0.88 min; A: water + 0.1% formic acid, pH 3; B: methanol + 0.1% formic acid, pH 3; gradient (min/%B) 0/0 1/0 6/5 30/100 35/100 35.1/0 40/0.
Series [4] is described as follows: RP, Waters CORTECS T3, 100 × 2.1 mm, 2.7 µm, 0.3 mL/min, estimated dead time 0.73 min; A: water + 0.1% formic acid, pH 3; B: methanol + 0.1% formic acid, pH 3; gradient (min/%B) 0/0 5/0 25/100 30/100 30.1/0 35/0.
Series [5] can be described thus: RP, Waters CORTECS T3, 100 × 2.1 mm, 2.7 µm, 0.2 mL/min, estimated dead time 1.1 min; A: water + 0.1% formic acid, pH 3; B: methanol + 0.1% formic acid, pH 3; gradient (min/%B) 0/0 1/0 6/5 30/100 35/100 35.1/0 40/0.
The nature of series [6]: RP, Waters CORTECS T3, 100 × 2.1 mm, 2.7 µm, 0.1 mL/min, estimated dead time 2.2 min; A: water + 0.1% formic acid, pH 3; B: methanol + 0.1% formic acid, pH 3; gradient (min/%B) 0/0 1/0 6/5 30/100 35/100 35.1/0 40/0.
Series [7] can be described thus: RP, Waters CORTECS T3, 100 × 2.1 mm, 2.7 µm, 0.2 mL/min, estimated dead time 1.1 min; A: water + 0.1% formic acid, pH 3; B: methanol + 0.1% formic acid, pH 3; gradient (min/%B) 0/5 5/5 25/95 25.1/100 35/100 35.1/5 45/5.
Series [8] can be described thus: RP, Waters ACQUITY UPLC BEH C18, 100 × 2.1 mm, 1.7 µm, 0.2 mL/min, estimated dead time 1.1 min; A: water + 0.025% formic acid + 20 mM ammonium acetate + 0.055% ammonium hydroxide, pH 7; B: methanol; gradient (min/%B) 0/5 5/5 25/100 30/100 30.1/5 35/5. This is another data set of the same source.
A short description of series [9]: RP, Waters ACQUITY UPLC BEH C18, 100 × 2.1 mm, 1.7 µm, 0.2 mL/min, estimated dead time 1.1 min; A: water + 0.1% formic acid, pH 3; B: methanol + 0.1% formic acid, pH 3; gradient (min/%B) 0/5 5/5 25/100 30/100 30.1/5 35/5.
Series [10] is described as follows: HILIC, Waters XBridge BEH Amide, 100 × 2.1 mm, 2.5 µm, 0.5 mL/min, estimated dead time 0.44 min; A: water + 0.1% acetic acid + 10 mM ammonium acetate, pH 4; B: 5% water + 95% acetonitrile + 0.1% acetic acid + 10 mM ammonium acetate, pH 4; gradient (min/%B) 0/95 5/95 20/57 25/57 30/95 40/95.
A short description of series [11]: RP, Thermo Scientific Hypercarb, 150 × 2.1 mm, 5 µm, 0.1 mL/min, estimated dead time 3.3 min; A: water + 0.1% formic acid, pH 3; B: methanol + 0.1% formic acid, pH 3; gradient (min/%B) 0/5 5/5 20/100 35/100 35.1/5 45/5.
The nature of series [12]: RP, Waters ACQUITY UPLC BEH C18, 100 × 2.1 mm, 1.7 µm, 0.1 mL/min, estimated dead time 2.2 min; A: water + 0.1% formic acid, pH 3; B: methanol + 0.1% formic acid, pH 3; gradient (min/%B) 0/5 5/5 25/95 25.1/100 35/100 35.1/5 45/5.

As for `N[C@@H](Cc1cc(I)c(Oc2ccc(O)cc2)c(I)c1)C(=O)O` [3,5-DIIODO-L-THYRONINE], the LC retention time in [1] is 15.8 min; in series [2], 15.9 min; in [3], 18.6 min; in series [4], 16.1 min; in [5] it was 19.3 min; in series [6] it was 17.1 min. Further, the LC retention time in series [7] was 22.3 min; in series [8], 17.1 min; in series [9], 16.9 min.
Take `O=C(O)c1cc(=O)c2ccccc2[nH]1` [4-HYDROXY-2-QUINOLINECARBOXYLIC ACID]: the LC retention time was 5.96 min in series [1]; 9.2 min in [2]; 11.4 min in series [3]; 10.5 min in series [4]; 12.2 min in [5]; 10.7 min in [6]. The LC retention time in series [7] is 15.8 min; in series [10], 8.25 min; in series [8], 8.26 min; in series [9], 10.9 min.
On to `CC(C)(CO)C(O)C(=O)NCCC(=O)O` [D-PANTOTHENIC ACID], for which the LC retention time in [1] is 1.46 min; in series [2] it was 5.14 min; in series [3], 8.69 min; in [11], 21.3 min; in series [4], 8.53 min; in series [5], 9.51 min. In addition, the LC retention time is 7.4 min in series [6], 13 min in series [7], 11.6 min in series [12] and 8.01 min in series [9].
In the case of `CC1NC(=O)NC1CCCCCC(=O)O` (stereo unspecified) [DETHIOBIOTIN], the LC retention time in series [1] is 8.17 min; in [2], 12.6 min; in series [3], 14.9 min; in series [11], 30 min; in series [4], 13.2 min; in [5] it was 15.7 min. The LC retention time is 13.9 min in series [6]; 19 min in series [7]; 9.58 min in series [8]; 17.2 min in series [12]; 13.8 min in [9].
In the case of `CC(C)=CCNc1ncnc2nc[nH]c12` [N6-(DELTA2-ISOPENTENYL)-ADENINE], the LC retention time in [1] is 15.4 min; in series [2] it was 12 min; in series [3], 14.2 min; in series [4], 12.7 min; in series [5] it was 15 min; in series [6], 13.4 min. Moreover, the LC retention time was 18.8 min in series [7]; 0.72 min in series [10]; 16.8 min in series [8]; 17.2 min in series [12]; 13.4 min in series [9].
For the compound `CC(=O)N[C@H](Cc1c[nH]c2ccccc12)C(=O)O` [N-ACETYL-D-TRYPTOPHAN], the LC retention time in series [1] is 9.66 min; in series [2], 12.5 min; in series [3], 14.8 min; in series [4], 13.2 min; in series [5], 15.7 min; in series [6], 13.9 min. Moreover, the LC retention time in series [7] was 19.2 min; in series [10] it was 8.11 min; in series [12], 17.6 min; in series [9], 14 min.
`Nc1nc2nccnc2c(=O)[nH]1` [PTERIN]: the LC retention time was 1.41 min in series [1]; 1.68 min in [2]; 2.96 min in series [4]; 4.26 min in series [5]; 8.07 min in series [7]; 4.98 min in series [10]. The results for the LC retention time in [12] and in series [9] were 4.74 min and 2.44 min, respectively.
For the compound `Cc1cc2nc3c(=O)[nH]c(=O)nc-3n(CC(O)C(O)C(O)CO)c2cc1C` (stereo unspecified) [RIBOFLAVIN], the LC retention time in [1] is 11.9 min; in [2], 11.9 min; in series [3], 14 min; in series [4], 12.5 min; in series [5], 14.7 min; in [6], 13.1 min. In addition, the LC retention time in [7] was 17.7 min; in series [8], 12.7 min; in series [12] it was 15.7 min; in series [9], 12.7 min.
On to `O=c1[nH]c(=O)c2[nH]cnc2[nH]1` [XANTHINE], for which the LC retention time in [1] is 1.36 min; in series [2], 1.51 min; in series [3] it was 2.63 min; in series [4], 2.27 min; in series [5] it was 3.29 min; in series [10], 6.47 min. The LC retention time is 2.82 min in series [12] and 2.14 min in [9].
Turning to `O=C(O)c1cc(=O)c2cccc(O)c2[nH]1` [XANTHURENIC ACID], the LC retention time in series [1] was 1.36 min; in [2] it was 8.97 min; in series [3] it was 11.1 min; in series [4] it was 10.3 min; in series [5], 12 min; in [6], 10.4 min. Besides, the LC retention time in series [7] is 15.5 min; in series [12], 14 min; in series [9], 10.4 min.
